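Each compound was tested at five concentrations against cells in 96-well plates for 48 hours. TGI: total growth inhibition.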
Columns and labels:
Test in all cases: DTP human tumour cell line panel, 48 h
SK-OV-3 ovarian = test system: SK-OV-3 ovarian
UO-31 renal = test system: UO-31 renal
HCT-116 colon = test system: HCT-116 colon
HCT-15 colon = test system: HCT-15 colon
BT-549 breast = test system: BT-549 breast
MDA-MB-435 = test system: MDA-MB-435
EKVX NSCLC = test system: EKVX NSCLC
SK-MEL-28 melanoma = test system: SK-MEL-28 melanoma
HT29 colon = test system: HT29 colon
KM12 colon = test system: KM12 colon
PC-3 prostate = test system: PC-3 prostate
M14 melanoma = test system: M14 melanoma
SW-620 colon = test system: SW-620 colon
CCRF-CEM leukemia = test system: CCRF-CEM leukemia
NCI-H226 lung = test system: NCI-H226 lung
SF-268 CNS = test system: SF-268 CNS
SF-539 CNS = test system: SF-539 CNS
SN12C renal = test system: SN12C renal
CAKI-1 renal = test system: CAKI-1 renal
LOX IMVI melanoma = test system: LOX IMVI melanoma

Row | SMILES | TGI (SK-OV-3 ovarian) | TGI (UO-31 renal) | TGI (HCT-116 colon) | TGI (HCT-15 colon) | TGI (BT-549 breast) | TGI (MDA-MB-435) | TGI (EKVX NSCLC) | TGI (SK-MEL-28 melanoma) | TGI (HT29 colon) | TGI (KM12 colon) | TGI (PC-3 prostate) | TGI (M14 melanoma) | TGI (SW-620 colon) | TGI (CCRF-CEM leukemia) | TGI (NCI-H226 lung) | TGI (SF-268 CNS) | TGI (SF-539 CNS) | TGI (SN12C renal) | TGI (CAKI-1 renal) | TGI (LOX IMVI melanoma)
1 | Cc1oc(N)c(S(=O)(=O)c2ccc(Cl)cc2)c1C | > 100 µM | > 100 µM | > 100 µM | > 100 µM | 60.5 µM | > 100 µM | > 100 µM | > 100 µM | > 100 µM | > 100 µM | 78 µM | > 100 µM | > 100 µM | > 100 µM | > 100 µM | > 100 µM | 64.2 µM | – | – | –
2 | CCCC(=O)O[C@H]1C=C2C[C@@]34SS[C@]5(CC6=C[C@H](OC(C)=O)[C@@H]7O[C@@H]7[C@H]6N5C3=O)C(=O)N4[C@@H]2[C@H]2O[C@H]21 | 3.21 µM | 0.173 µM | 0.0285 µM | 1.43 µM | – | 0.0241 µM | 0.0294 µM | 0.235 µM | 0.0166 µM | 2.29 µM | 0.0611 µM | 0.0545 µM | 0.671 µM | 8.41 µM | 1.77 µM | 0.119 µM | 0.932 µM | 0.0111 µM | 1.09 µM | 0.131 µM
3 | CCOC(=O)c1nc2ccccc2nc1Nc1ccc(OC)c(OC)c1 | > 100 µM | > 100 µM | > 100 µM | > 100 µM | > 100 µM | > 100 µM | > 100 µM | > 100 µM | > 100 µM | > 100 µM | – | > 100 µM | – | > 100 µM | – | > 100 µM | > 100 µM | > 100 µM | > 100 µM | –
4 | COc1cc(/C=C2/SC(c3ccccc3)N(c3ccccc3)C2=O)cc(OC)c1OC (stereo not given) | > 100 µM | > 100 µM | > 100 µM | > 100 µM | > 100 µM | > 100 µM | > 100 µM | > 100 µM | – | > 100 µM | – | > 100 µM | > 100 µM | 42.2 µM | > 100 µM | > 100 µM | > 100 µM | > 100 µM | > 100 µM | > 100 µM
5 | Brc1c(C#CCC(c2ccccc2)(c2ccccc2)c2ccccc2)ccc(C#CCC(c2ccccc2)(c2ccccc2)c2ccccc2)c1Br | > 100 µM | > 100 µM | > 100 µM | > 100 µM | > 100 µM | > 100 µM | > 100 µM | > 100 µM | > 100 µM | > 100 µM | > 100 µM | > 100 µM | > 100 µM | > 100 µM | > 100 µM | > 100 µM | > 100 µM | > 100 µM | > 100 µM | –
6 | CC(=O)Oc1cc2c(c3ncccc13)OC(C)(C)C2 | > 100 µM | > 100 µM | 27.5 µM | 46.5 µM | > 100 µM | 24 µM | – | > 100 µM | 36.9 µM | 30.7 µM | > 100 µM | 27.5 µM | > 100 µM | 28.7 µM | 33.1 µM | 25.9 µM | 26.9 µM | 25.9 µM | 21.3 µM | –
7 | Cc1ccc2c(sc(-c3ccc4c(c3)sc(-c3ccc5c(c3)sc(-c3ccc(N(C)C)cc3)[n+]5C)[n+]4C)[n+]2C)c1S(=O)(=O)O (tested in a mixture with another compound) | > 100 µM | > 100 µM | > 100 µM | > 100 µM | > 100 µM | > 100 µM | > 100 µM | > 100 µM | > 100 µM | > 100 µM | > 100 µM | > 100 µM | > 100 µM | – | – | > 100 µM | > 100 µM | > 100 µM | – | > 100 µM
8 | CCN(CC)C(=S)SS(=O)(=O)c1ccc(Cl)cc1 | > 100 µM | 35.7 µM | > 100 µM | > 100 µM | > 100 µM | 48.5 µM | > 100 µM | 34.4 µM | 32.1 µM | 24.4 µM | – | 31 µM | 37 µM | – | > 100 µM | > 100 µM | 43.5 µM | 48.2 µM | 43.5 µM | 29.2 µM
9 | COC(C(=O)C(O)C(C)O)C1CC2C=C3C=C(OC4CC(OC5CC(O)C(OC)C(C)O5)C(OC(C)=O)C(C)O4)C(C)C(=O)C3=C(O)C2=C(O)C1OC1CC(OC2CC(OC3CC(C)(O)C(OC(=O)C(C)C)C(C)O3)C(O)C(C)O2)C(O)C(C)O1 (stereo not given) | > 100 µM | – | > 100 µM | – | – | < 0.01 µM | < 0.01 µM | < 0.01 µM | – | < 0.01 µM | – | < 0.01 µM | – | – | < 0.01 µM | < 0.01 µM | < 0.01 µM | < 0.01 µM | > 100 µM | –
10 | CN(C)CC1COC2Cc3ccccc3C1O2 (stereo not given) | > 100 µM | > 100 µM | > 100 µM | > 100 µM | – | > 100 µM | > 100 µM | > 100 µM | > 100 µM | > 100 µM | > 100 µM | > 100 µM | – | > 100 µM | > 100 µM | > 100 µM | > 100 µM | > 100 µM | > 100 µM | > 100 µM
11 | CCCCOC(=O)NC(Nc1cccc(C(F)(F)F)c1)(C(F)(F)F)C(F)(F)F | – | > 100 µM | > 100 µM | > 100 µM | – | > 100 µM | > 100 µM | > 100 µM | > 100 µM | > 100 µM | > 100 µM | > 100 µM | > 100 µM | > 100 µM | > 100 µM | > 100 µM | > 100 µM | > 100 µM | > 100 µM | > 100 µM
12 | C/C=C\C(CC(=O)NCCC1CN(S(=O)(=O)C(F)(F)F)c2ccccc21)CC(=O)OC (stereo not given) | > 100 µM | > 100 µM | > 100 µM | > 100 µM | 67.1 µM | – | > 100 µM | > 100 µM | 51.3 µM | > 100 µM | > 100 µM | > 100 µM | > 100 µM | > 100 µM | – | – | – | – | > 100 µM | –
13 | CCOC(=O)c1c(C)cc(=O)n2c1[nH]c1ccccc12 | > 100 µM | > 100 µM | > 100 µM | > 100 µM | > 100 µM | – | > 100 µM | > 100 µM | > 100 µM | – | > 100 µM | > 100 µM | > 100 µM | > 100 µM | > 100 µM | – | > 100 µM | > 100 µM | 50.9 µM | > 100 µM
14 | C/C1=C/C(C)CC(C)OC(=O)C(C)NC(=O)C(Cc2ccc(O)c(I)c2)N(C)C(=O)C(C)NC(=O)C(C)C1 (stereo not given) | – | – | > 48.7 µM | 12.1 µM | 0.737 µM | 16 µM | – | – | > 40.7 µM | 24.3 µM | – | 48.8 µM | > 100 µM | – | – | 0.347 µM | 1.61 µM | > 89.2 µM | – | < 0.01 µM
15 | N#CC(=C1CCCCC1)c1nc2ccccc2o1 | > 100 µM | > 100 µM | > 100 µM | > 100 µM | 89.1 µM | > 100 µM | 89.4 µM | > 100 µM | > 100 µM | > 100 µM | > 100 µM | > 100 µM | – | > 100 µM | > 100 µM | > 100 µM | 64.4 µM | > 100 µM | > 100 µM | –
16 | Cc1c2c(n(CCc3ccccc3)c1C)N(C)N=C(C#N)S2(=O)=O | > 100 µM | > 100 µM | > 100 µM | > 100 µM | > 100 µM | > 100 µM | > 100 µM | > 100 µM | > 100 µM | > 100 µM | > 100 µM | > 100 µM | > 100 µM | – | > 100 µM | > 100 µM | > 100 µM | > 100 µM | > 100 µM | –
17 | O=C1CC(=O)NC(=NN2C(=O)/C(=C/c3ccccc3)N=C2c2ccccc2)N1 | > 100 µM | > 100 µM | > 100 µM | > 100 µM | 77.1 µM | > 100 µM | – | > 100 µM | > 100 µM | > 100 µM | > 100 µM | > 100 µM | > 100 µM | > 100 µM | > 100 µM | > 100 µM | > 100 µM | > 100 µM | > 100 µM | –
18 | C[C@]12Cc3cnn(-c4ccc(F)cc4)c3NC1CC[C@@H]1C2CC[C@@]2(C)C1CC[C@@H]2O (stereo not given in full) | 67.9 µM | 22.5 µM | 16.6 µM | – | 13.4 µM | 20.8 µM | 25.4 µM | 27.2 µM | 3.81 µM | 18.3 µM | 21.9 µM | 23.1 µM | 13.6 µM | 32.6 µM | 28 µM | 37.9 µM | 8.56 µM | 30.4 µM | 49.4 µM | –
19 | COP(=O)(Cc1ccccc1)Cc1ccccc1 | > 100 µM | > 100 µM | > 100 µM | > 100 µM | > 100 µM | – | > 100 µM | > 100 µM | > 100 µM | – | > 100 µM | > 100 µM | > 100 µM | > 100 µM | > 100 µM | > 100 µM | > 100 µM | > 100 µM | > 100 µM | > 100 µM
20 | O=C(Cc1csc(N=Nc2c(O)[nH]c3ccccc23)n1)Nc1ccccc1 | > 100 µM | 93.3 µM | 50.8 µM | > 100 µM | > 100 µM | > 100 µM | 52.8 µM | 46.5 µM | 59 µM | > 100 µM | – | > 100 µM | > 100 µM | – | – | 41.4 µM | 79.4 µM | > 100 µM | 53.4 µM | > 100 µM

From PubChem BioAssay (NCI)
